From patent US12186317B2, “Inhibitors of alpha-amino-beta-carboxymuconic acid semialdehyde decarboxylase” (TES Pharma S.r.l., priority 2018, dated 2025)

Target: T1, hACMSD (ACMSD1) (Homo sapiens, UniProt Q8TDX5)
T1 construct: made in house; host or cells: Pichia pastoris
Assay: Determination of ACMSD1 inhibition, spectrophotometrical in vitro assay (conversion of 3OH-anthranilic acid into ACMS)
Type: biochemical
Conditions: HAA concentration of 10 μM; recombinant ACMSD1 from Pichia pastoris; 25° C.; absorbance at 360 nm
Procedure: The activity of compounds as inhibitors of ACMSD1 is determined in a spectrophotometrical in vitro assay. The pre-assay mixture is incubated and a compound of Formula (I) or (II), or a pharmaceutically acceptable salt thereof, and ACMSD1 solution is then added. The effect of ACMS concentration on the enzyme activity is investigated by varying 3-hydroxyanthranilic acid (30H-HA) concentration in the pre-assay mixture. Kinetic parameters are calculated from the initial velocity data using a Lineweaver-Burk plot.
The pre-assay mixture consisting of 3-hydroxyanthranilic acid (30H-HA), 3-hydroxyanthranilic acid, 3,4-diOxygenase (HAO), and a dialyzed crude extract of E. coli BL21 (DE3) cells expressing the recombinant enzyme, was incubated at 25° C. with monitoring of the increase in absorbance at 360 nm due to the formation of ACMS from 30H-HA. After the reaction was completed within ˜2 mins, an aliquot of ACMSD1 solution (prepared and purified from Pichia pastoris overexpressing the recombinant enzyme) was added, and the decrease in absorbance at 360 nm was followed at 15 second intervals. The effect of ACMS concentration on the enzyme activity was investigated by varying 30H-HA concentration from 2 to 20 μM. Kinetic parameters were calculated from the initial velocity data by using the Lineweaver-Burk plot.
The rate of the decrease in absorbance caused by ACMSD1 was calculated by subtracting that of the control reaction mixture without ACMSD from that described above. One unit of ACMSD activity was indicated as the amount of enzyme that converts 1 mmol of ACMS per minute at 25° C.
The enzymatic activity was determined at a HAA concentration of 10 μM in the presence of the compounds in Table 1 below. […] In Table 1, A is <0.1 μM; B is 0.1 to 1 μM; C is 1 to 10 μM; and D is >10 μM.

T1 sequence (Q8TDX5 whole entry): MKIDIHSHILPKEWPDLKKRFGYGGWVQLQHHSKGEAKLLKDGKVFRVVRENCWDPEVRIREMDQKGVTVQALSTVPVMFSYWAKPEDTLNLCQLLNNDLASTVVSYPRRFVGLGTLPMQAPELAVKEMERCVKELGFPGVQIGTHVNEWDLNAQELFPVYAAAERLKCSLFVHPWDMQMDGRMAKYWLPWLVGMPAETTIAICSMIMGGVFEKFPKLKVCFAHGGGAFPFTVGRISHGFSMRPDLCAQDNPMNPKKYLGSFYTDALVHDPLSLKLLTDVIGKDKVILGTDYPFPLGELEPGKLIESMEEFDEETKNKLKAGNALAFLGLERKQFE

First: N#Cc1c(-c2cccs2)nc(SCc2cc(F)c(O)c(F)c2)[nH]c1=O [I-39, 2-(3,5-Difluoro-4-hydroxy-benzylsulfanyl)-6-oxo-4-thiophen-2-yl-1,6-dihydro-pyrimidine-5-carbonitrile]
Second: N#Cc1cnc(SCc2cccc(CC(=O)O)c2)nc1-c1cccs1 [I-8, [3-(5-Cyano-6-thiophen-2-yl-pyrimidin-2-ylsulfanylmethyl)-phenyl]-acetic acid]
The IC50 of the first is higher: 1 to 10 µM for the first, 0.1 to 1 µM for the second.

For `O=c1cc(C(F)(F)F)nc(SCc2nnn[nH]2)[nH]1` [I-26, 2-(1H-Tetrazol-5-ylmethylsulfanyl)-6-trifluoromethyl-3H-pyrimidin-4-one], the IC50 was < 0.1 µM.
